Entries after “also recorded” stand apart in the source; their conditions may differ.
Columns and labels:
p-S6 S240/244 = assay: mTORC1 activity (p-S6 S240/244) by Western blot in R6/2 brain slices; assay type: cell-based, mouse; conditions: R6/2 slices treated DIV14 to DIV21, analysed at DIV21
LC3-II/I conversion = assay: Autophagy induction (LC3-II/I conversion) by Western blot in R6/2 brain slices; assay type: cell-based; conditions: R6/2 slices treated DIV14 to DIV21, analysed at DIV21
Procedure: (§1) Transgenic mice expressing human Huntingtin Exon-1Q200 (R6/2 mouse model described in Davies et al., 1997) were housed in a temperature-controlled room and maintained on a 12 hr light/dark cycle. Food and water were available ad libitum and experiments were carried out in accordance with the local authorization guidelines for the care and use of laboratory animals. Slice cultures were established according to the procedure described by Stoppini and colleagues (Stoppini et al., 1991 and Gogolla et al., 2006) and a particular cutting angle was utilized to produce brain slices with a preserved cortico-striatal pathway. Finally, slices were selected, placed on Millicel (Millipore, PICM03050) and cultured in 6-well dishes at 35° C. and 5% CO2 in the presence of 1 ml of culture medium.
Slices were treated with different mTOR inhibitors from DIV14 to DIV21. The culture medium was exchanged every second day, and drugs were added in the fresh culture medium. We used this protocol to evaluate the action of the following mTOR inhibitors: BEZ235 (50 and 300 nM in DMSO), RAD001 (250 nM in DMSO), CCG168 (300 nM in DMSO), RAD001+BEZ235 (250 10, 250 30 and 250 50 nM in DMSO) and RAD001'CCG168 (250 and 50 nM in DMSO).
Slices were washed in PBS and lysed in 1% Triton X-100/PBS containing Complete Mini (Roche, #04693124001) and PhosSTOP (Roche, #04906837001). Lysates were ultrasonicated and analysed by Western blotting for B-actin (Sigma, #A5441), pS6 Ser 240/244 (Cell Signalling, #2215), and LC3B (Cell Signalling, #2775). Immunoblots were developed with ECL detection reagent (Amersham Biosciences).

polyQ inclusions = assay: polyQ density by immunohistochemistry in R6/2 brain slices; assay type: cell-based, mouse; conditions: R6/2 slices at DIV21, vs control R6/2
Procedure: as §1
(§2) Slices were treated with different mTOR inhibitors from DIV14 to DIV21. The culture medium was exchanged every second day, and drugs were added in the fresh culture medium. […]
(§3) High resolution images were acquired on an upright Zeiss LSM700 confocal microscope, using a Plan-Neofluar 40×/1.3 oil immersion objective. For the quantification of the PolyQ density and DARPP-32/NeuF signal intensity, at least three confocal 3D stacks/slice were acquired in striatum for each experiment (five slices per condition), and analyzed using Imaris 4.2 (Bitplane AG) and Image J softwares.
(§4) All data are expressed as mean±SEM. […]

DARPP-32 = assay: Striatal degeneration: DARPP-32 intensity in R6/2 brain slices; assay type: cell-based, mouse; conditions: R6/2 slices at DIV21
Procedure: as §1, §2, §3, §4

neurofilament = assay: Striatal degeneration: neurofilament intensity in R6/2 brain slices; assay type: cell-based, mouse; conditions: R6/2 slices at DIV21
Procedure: as §1, §2, §3, §4

mTOR = mTOR (Homo sapiens, UniProt P42345); conditions: low concentration; Serra et al., 2008; cited from earlier work
PI3K/mTOR = conditions: relatively higher concentrations; Serra et al., 2008; cited from earlier work
[1] = single low-concentration (50 nM)
[2] = single low-concentration (250 nM)

Row | SMILES | p-S6 S240/244 level (p-S6 S240/244; 50 nM) | LC3-II/I conversion (autophagy induction) (LC3-II/I conversion; 50 nM) | LC3-II/I conversion (autophagy induction) (LC3-II/I conversion; 300 nM) | polyQ density (polyQ inclusions; 50 nM) | preservation of DARPP-32 level (DARPP-32; [1]) | preservation of neurofilament level (neurofilament; [1]) | concentration at which mTOR inhibition predominates (mTOR) | concentration giving dual PI3K/mTOR inhibition (PI3K/mTOR) | p-S6 S240/244 level (p-S6 S240/244; 250 nM) | LC3-II/I conversion (autophagy induction) (LC3-II/I conversion; 250 nM) | polyQ density (polyQ inclusions; 250 nM) | preservation of DARPP-32 level (DARPP-32; [2]) | preservation of neurofilament level (neurofilament; [2])
1 | Cn1c(=O)n(-c2ccc(C(C)(C)C#N)cc2)c2c3cc(-c4cnc5ccccc5c4)ccc3ncc21 [BEZ235, 2-methyl-2-[4-(3-methyl-2-oxo-8-quinolin-3-yl-2,3-dihydro-imidazo[4,5-c]quinolin-1-yl)-phenyl]-propionitrile] | did not reduce | no effect | induced autophagy; also recorded: reached similar efficacy | no effect | ineffective | ineffective | less than 100 nmol/L | approximately 500 nmol/L |  |  |  |  | 
2 | COc1ccc(-c2ccc3c(N4CCOC[C@@H]4C)nc(N4CCOC[C@@H]4C)nc3n2)cc1CO [CCG168, {5-[2,4-bis-((S)-3-methyl-morpholin-4-yl)-pyrido[2,3d]pyrimidin-7-yl]-2-methoxy-phenyl}-methanol] |  |  | induced autophagy; also recorded: reached similar efficacy |  |  |  |  |  |  |  |  |  | 
3 | CO[C@H]1C[C@@H]2CC[C@@H](C)[C@@](O)(O2)C(=O)C(=O)N2CCCC[C@H]2C(=O)O[C@H]([C@H](C)C[C@@H]2CC[C@@H](OCCO)[C@H](OC)C2)CC(=O)[C@H](C)/C=C(\C)[C@@H](O)[C@@H](OC)C(=O)[C@H](C)C[C@H](C)/C=C/C=C/C=C/1C [RAD001, (1R,9S,12S,15R,16E,18R,19R,21R,23S,24E,26E,28E,30S,32S,35R)-1,18-dihydroxy-12-{(1R)-2-[(1S,3R,4R)-4-(2-hydroxyethoxy)-3-methoxycyclohexyl]-1-methylethyl}-19,30-dimethoxy-15,17,21,23,29,35-hexamethyl-11,36-dioxa-4-aza-tricyclo[30.3.1.0^4,9]hexatriaconta-16,24,26,28-tetraene-2,3,10,14,20-pentaone] |  |  |  |  |  |  |  |  | reduced | no effect | no effect | ineffective | ineffective
